Experimental data: patent US20120324604A1, “PESTICIDAL MIXTURES CONTAINING ISOXAZOLINE DERIVATIVES AND A FUNGICIDE” (priority 2010, published 2012)

Key:
Assay type in all cases: cell-based
[1] = system: Mycosphaerella arachidis (syn. Cercospora arachidicola); assay: Mycosphaerella arachidis (Brown Leaf Spot of Groundnut) growth inhibition, microtiter plate, photometric; conditions: alone
Protocol: Mycosphaerella arachidis (syn. Cercospora arachidicola), Brown Leaf Spot of Groundnut (Peanut):
(§1) Conidia of the fungus from cryogenic storage were directly mixed into nutrient broth (potato dextrose broth). After placing a (DMSO) solution of the test compounds into a microtiter plate (96-well format) the nutrient broth containing the fungal spores was added.

[2] = system: Glomerella lagenarium (syn. Colletotrichum lagenarium); assay: Glomerella lagenarium (Anthracnose of Cucurbits) growth inhibition, microtiter plate, photometric; conditions: alone
Protocol: Glomerella lagenarium (syn. Colletotrichum lagenarium), Anthracnose of Cucurbits:
as §1

[3] = system: Fusarium culmorum; assay: Fusarium culmorum (Root Rot) growth inhibition, microtiter plate, photometric
Protocol: Fusarium culmorum (Root Rot):
as §1

[4] = system: Septoria tritici; assay: Septoria tritici (Leaf Blotch) growth inhibition, microtiter plate, photometric; conditions: for AVERAGE DEAD IN % A5: A5 alone; for AVERAGE DEAD IN %: alone; for AVERAGE DEAD IN % A6: A6 alone
Protocol: Septoria tritici (Leaf Blotch):
as §1

[5] = system: Rhizoctonia solani; assay: Rhizoctonia solani (Foot Rot, Damping-Off) growth inhibition, microtiter plate, photometric
Protocol: Rhizoctonia solani (Foot Rot, Damping-Off):
Mycelial fragments of the fungus from cryogenic storage were directly mixed into nutrient broth (potato dextrose broth). After placing a (DMSO) solution of the test compounds into a microtiter plate (96-well format) the nutrient broth containing the fungal spores was added.

[6] = system: Gaeumannomyces graminis; assay: Gaeumannomyces graminis growth inhibition, microtiter plate, photometric
Protocol: Mycelial fragments of the fungus from cryogenic storage were directly mixed into nutrient broth (potato dextrose broth). After placing a (DMSO) solution of the test compounds into a microliter plate (96-well format) the nutrient broth containing the fungal spores was added.

[7] = system: Pythium ultimum; assay: Pythium ultimum (Damping Off) growth inhibition, microtiter plate, photometric
Protocol: Pythium ultimum (Damping Off):
Mycelial fragments of the fungus, prepared from a fresh liquid culture, were directly mixed into nutrient broth (potato dextrose broth). After placing a (DMSO) solution of the test compounds into a microtiter plate (96-well format) the nutrient broth containing the fungal spores was added.

[8] = single compound, 2.5 PPM AI, 48 hrs, 24° C.
[9] = single compound, 5 PPM AI, 48 hrs, 24° C.
[10] = single compound, 10 PPM AI, 48 hrs, 24° C.
[11] = single compound, 20 PPM AI, 48 hrs, 24° C.
[12] = applied alone, 0.0390625 ppm AI
[13] = single compound at 0.0390625 ppm AI
[14] = single compound at 0.078125 ppm AI
[15] = single compound at 0.15625 ppm AI
[16] = single compound at 0.3125 ppm AI
[17] = single compound at 0.625 ppm AI

Cc1cc(C2=NOC(c3cc(Cl)cc(Cl)c3)(C(F)(F)F)C2)ccc1C(=O)NC1CSC1 (racemic) [A5]
0%: AVERAGE DEAD IN % ([1]; 0.078125 ppm AI) | AVERAGE DEAD IN % ([1]; 0.15625 ppm AI) | AVERAGE DEAD IN % ([1]; 0.3125 ppm AI) | AVERAGE DEAD IN % ([1]; 0.625 ppm AI) | AVERAGE DEAD IN % ([1]; 1.25 ppm AI) | AVERAGE DEAD IN % ([1]; 2.5 ppm AI) | AVERAGE DEAD IN % ([1]; 5 ppm AI) | AVERAGE DEAD IN % ([1]; 10 ppm AI) | AVERAGE DEAD IN % ([1]; 20 ppm AI) | AVERAGE DEAD IN % ([1]; 0.0390625 PPM AI) | AVERAGE DEAD IN % ([1]; 0.078125 PPM AI) | AVERAGE DEAD IN % ([1]; 0.15625 PPM AI) | AVERAGE DEAD IN % ([1]; 0.3125 PPM AI) | AVERAGE DEAD IN % ([1]; 0.625 PPM AI) | AVERAGE DEAD IN % ([1]; 1.25 PPM AI) | AVERAGE DEAD IN % ([1]; 2.5 PPM AI) | AVERAGE DEAD IN % ([1]; 5 PPM AI) | AVERAGE DEAD IN % ([1]; 10 PPM AI) | AVERAGE DEAD IN % ([2]; 0.0390625 ppm AI) | AVERAGE DEAD IN % ([2]; 0.078125 ppm AI) | AVERAGE DEAD IN % ([2]; 0.15625 ppm AI) | AVERAGE DEAD IN % ([2]; 0.3125 ppm AI) | AVERAGE DEAD IN % ([2]; 0.625 ppm AI) | AVERAGE DEAD IN % ([2]; 1.25 ppm AI) | AVERAGE DEAD IN % ([2]; 2.5 ppm AI) | AVERAGE DEAD IN % ([2]; 5 ppm AI) | AVERAGE DEAD IN % ([2]; 10 ppm AI) | AVERAGE DEAD IN % ([2]; 20 ppm AI) | AVERAGE DEAD IN % ([3]; alone, 1.25 PPM AI) | AVERAGE DEAD IN % ([3]; alone, 2.5 PPM AI) | AVERAGE DEAD IN % ([3]; alone, 5 PPM AI) | AVERAGE DEAD IN % ([3]; alone, 10 PPM AI) | AVERAGE DEAD IN % ([3]; alone, 20 PPM AI) | AVERAGE DEAD IN % ([3]; single compound, 0.625 PPM AI, 48 hrs, 24° C.) | AVERAGE DEAD IN % ([3]; single compound, 1.25 PPM AI, 48 hrs, 24° C.) | AVERAGE DEAD IN % [3, 8] | AVERAGE DEAD IN % [3, 9] | AVERAGE DEAD IN % [3, 10] | AVERAGE DEAD IN % [3, 11] | AVERAGE DEAD IN % A5 ([4]; 0.0390625 ppm AI) | AVERAGE DEAD IN % A5 ([4]; 0.078125 ppm AI) | AVERAGE DEAD IN % A5 ([4]; 0.15625 ppm AI) | AVERAGE DEAD IN % A5 ([4]; 0.3125 ppm AI) | AVERAGE DEAD IN % A5 ([4]; 0.625 ppm AI) | AVERAGE DEAD IN % A5 ([4]; 1.25 ppm AI) | AVERAGE DEAD IN % A5 ([4]; 2.5 ppm AI) | AVERAGE DEAD IN % A5 ([4]; 5 ppm AI) | AVERAGE DEAD IN % A5 ([4]; 10 ppm AI) | AVERAGE DEAD IN % [5, 12] | AVERAGE DEAD IN % ([5]; applied alone, 0.078125 ppm AI) | AVERAGE DEAD IN % ([5]; applied alone, 0.15625 ppm AI) | AVERAGE DEAD IN % ([5]; applied alone, 0.3125 ppm AI) | AVERAGE DEAD IN % ([5]; applied alone, 0.625 ppm AI) | AVERAGE DEAD IN % ([5]; applied alone, 1.25 ppm AI) | AVERAGE DEAD IN % ([5]; applied alone, 2.5 ppm AI) | AVERAGE DEAD IN % ([5]; applied alone, 5 ppm AI) | AVERAGE DEAD IN % ([5]; applied alone, 10 ppm AI) | AVERAGE DEAD IN % ([5]; applied alone, 20 ppm AI) | AVERAGE DEAD IN % ([5]; single compound at 2.5 ppm AI) | AVERAGE DEAD IN % [6, 13] | AVERAGE DEAD IN % [6, 14] | AVERAGE DEAD IN % [6, 15] | AVERAGE DEAD IN % [6, 16] | AVERAGE DEAD IN % [6, 17] | AVERAGE DEAD IN % ([6]; single compound at 1.25 ppm AI) | AVERAGE DEAD IN % ([6]; single compound at 2.5 ppm AI) | AVERAGE DEAD IN % ([6]; single compound at 5 ppm AI) | AVERAGE DEAD IN % ([6]; single compound at 10 ppm AI) | AVERAGE DEAD IN % ([6]; single compound at 20 ppm AI) | AVERAGE DEAD IN % [7, 13] | AVERAGE DEAD IN % [7, 14] | AVERAGE DEAD IN % [7, 15] | AVERAGE DEAD IN % [7, 16] | AVERAGE DEAD IN % [7, 17] | AVERAGE DEAD IN % ([7]; single compound at 1.25 ppm AI) | AVERAGE DEAD IN % ([7]; single compound at 2.5 ppm AI) | AVERAGE DEAD IN % ([7]; single compound at 5 ppm AI) | AVERAGE DEAD IN % ([7]; single compound at 10 ppm AI) | AVERAGE DEAD IN % ([7]; single compound at 20 ppm AI)

Cc1cc(C2=NOC(c3cc(Cl)cc(Cl)c3)(C(F)(F)F)C2)ccc1C(=O)NC1C[S+]([O-])C1 (stereo not shown) [A6]
0%: AVERAGE DEAD IN % ([1]; 0.0390625 PPM AI) | AVERAGE DEAD IN % ([1]; 0.078125 PPM AI) | AVERAGE DEAD IN % ([1]; 0.15625 PPM AI) | AVERAGE DEAD IN % ([1]; 0.3125 PPM AI) | AVERAGE DEAD IN % ([1]; 0.625 PPM AI) | AVERAGE DEAD IN % ([1]; 1.25 PPM AI) | AVERAGE DEAD IN % ([1]; 2.5 PPM AI) | AVERAGE DEAD IN % ([1]; 5 PPM AI) | AVERAGE DEAD IN % ([1]; 10 PPM AI) | AVERAGE DEAD IN % ([1]; 20 PPM AI) | AVERAGE DEAD IN % ([2]; 0.078125 ppm AI) | AVERAGE DEAD IN % ([2]; 0.15625 ppm AI) | AVERAGE DEAD IN % ([2]; 2.5 ppm AI) | AVERAGE DEAD IN % ([2]; 5 ppm AI) | AVERAGE DEAD IN % ([2]; 10 ppm AI) | AVERAGE DEAD IN % ([2]; 20 ppm AI) | AVERAGE DEAD IN % [3, 8] | AVERAGE DEAD IN % [3, 9] | AVERAGE DEAD IN % [3, 10] | AVERAGE DEAD IN % [3, 11] | AVERAGE DEAD IN % ([4]; 0.3125 ppm AI) | AVERAGE DEAD IN % ([4]; 0.625 ppm AI) | AVERAGE DEAD IN % ([4]; 1.25 ppm AI) | AVERAGE DEAD IN % ([4]; 2.5 ppm AI) | AVERAGE DEAD IN % ([4]; 5 ppm AI) | AVERAGE DEAD IN % ([4]; 10 ppm AI) | AVERAGE DEAD IN % ([4]; 20 ppm AI) | AVERAGE DEAD IN % A6 ([4]; 0.0390625 ppm AI) | AVERAGE DEAD IN % A6 ([4]; 0.078125 ppm AI) | AVERAGE DEAD IN % A6 ([4]; 0.15625 ppm AI) | AVERAGE DEAD IN % A6 ([4]; 0.3125 ppm AI) | AVERAGE DEAD IN % A6 ([4]; 0.625 ppm AI) | AVERAGE DEAD IN % A6 ([4]; 1.25 ppm AI) | AVERAGE DEAD IN % A6 ([4]; 2.5 ppm AI) | AVERAGE DEAD IN % A6 ([4]; 5 ppm AI) | AVERAGE DEAD IN % A6 ([4]; 10 ppm AI) | AVERAGE DEAD IN % A6 ([4]; 20 ppm AI) | AVERAGE DEAD IN % [5, 12] | AVERAGE DEAD IN % ([5]; applied alone, 0.078125 ppm AI) | AVERAGE DEAD IN % ([5]; applied alone, 0.15625 ppm AI) | AVERAGE DEAD IN % ([5]; applied alone, 0.3125 ppm AI) | AVERAGE DEAD IN % ([5]; applied alone, 0.625 ppm AI) | AVERAGE DEAD IN % ([5]; applied alone, 1.25 ppm AI) | AVERAGE DEAD IN % ([5]; applied alone, 2.5 ppm AI) | AVERAGE DEAD IN % ([5]; applied alone, 5 ppm AI) | AVERAGE DEAD IN % ([5]; applied alone, 10 ppm AI) | AVERAGE DEAD IN % ([5]; applied alone, 20 ppm AI) | AVERAGE DEAD IN % [6, 13] | AVERAGE DEAD IN % [6, 14] | AVERAGE DEAD IN % [6, 15] | AVERAGE DEAD IN % [6, 16] | AVERAGE DEAD IN % [6, 17] | AVERAGE DEAD IN % ([6]; single compound at 1.25 ppm AI) | AVERAGE DEAD IN % ([6]; single compound at 2.5 ppm AI) | AVERAGE DEAD IN % ([6]; single compound at 5 ppm AI) | AVERAGE DEAD IN % ([6]; single compound at 10 ppm AI) | AVERAGE DEAD IN % ([6]; single compound at 20 ppm AI) | AVERAGE DEAD IN % [7, 14] | AVERAGE DEAD IN % [7, 15] | AVERAGE DEAD IN % [7, 16] | AVERAGE DEAD IN % [7, 17] | AVERAGE DEAD IN % ([7]; single compound at 1.25 ppm AI) | AVERAGE DEAD IN % ([7]; single compound at 2.5 ppm AI) | AVERAGE DEAD IN % ([7]; single compound at 5 ppm AI) | AVERAGE DEAD IN % ([7]; single compound at 10 ppm AI) | AVERAGE DEAD IN % ([7]; single compound at 20 ppm AI)
